The values below come from patent publication US9884819B2, “Tetrahydrocarbazole inhibitors of SIRT1 receptors” (Auspex Pharmaceuticals, Inc., priority 2016, dated 2018).

A short description of series [1]: In vitro human liver microsomal stability assay. The format is in vitro ADME. Conditions: for Percent Remaining (%) 0 min / Percent Remaining (%) 15 min / Percent Remaining (%) 30 min / Percent Remaining (%) 60 min / Percent Remaining (%) 120 min: human liver microsomes 2 mg/mL, 1 μM compound; for Percent Remaining (%) 0 min / Percent Remaining (%) 15 min / Percent Remaining (%) 30 min / Percent Remaining (%) 60 min / Percent Remaining (%) 120 min / Percent Remaining (%) 120 min w/o NADPH: mean; for Percent Remaining (%) 120 min w/o NADPH: 120 min without NADPH; for CLint scaled at 1 μM / half-life at 1 μM: pH 7.4. Here is the method:
Human liver microsomal stability assays are conducted at 2 mg per mL liver microsome protein with an NADPH-generating system consisting of NADP (1 mM, pH 7.4), […] (5 mM, pH 7.4), and glucose-6-phosphate dehydrogenase (1 unit/mL). Test compounds were prepared as solutions in DMSO and added to the assay mixture (1 μM, final concentration in incubation) and were incubated at 37±1° C. […] Samples were centrifuged (920×g for 10 min at 10° C.) in 96-well plates. Supernatant fractions were analyzed by LC-MS/MS to determine the percent remaining and estimate the degradation half-life of the test compounds.
(In general: Microsomes from liver hold many membrane-bound enzymes, among them those of drug oxidation.)

Another series has as its target T1, CYP1A2 (Homo sapiens, UniProt P05177).
T1 construct: purchased BD Biosciences, San Jose, Calif
T1 sequence (P05177 1-516): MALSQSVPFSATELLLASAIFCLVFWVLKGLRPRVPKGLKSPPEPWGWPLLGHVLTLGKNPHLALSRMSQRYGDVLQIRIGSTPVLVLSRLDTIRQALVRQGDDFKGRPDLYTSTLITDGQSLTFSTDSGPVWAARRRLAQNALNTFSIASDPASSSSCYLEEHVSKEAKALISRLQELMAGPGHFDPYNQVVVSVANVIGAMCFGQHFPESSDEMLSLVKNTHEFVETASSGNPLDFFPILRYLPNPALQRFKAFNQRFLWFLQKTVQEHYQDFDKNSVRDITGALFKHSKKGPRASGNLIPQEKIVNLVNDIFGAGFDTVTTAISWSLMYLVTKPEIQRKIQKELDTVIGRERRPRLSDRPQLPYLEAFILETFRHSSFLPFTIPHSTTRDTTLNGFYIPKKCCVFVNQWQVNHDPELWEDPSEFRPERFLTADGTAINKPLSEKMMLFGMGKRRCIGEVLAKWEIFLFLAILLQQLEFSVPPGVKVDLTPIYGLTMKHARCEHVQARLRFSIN
Nature of the series: In vitro metabolism using human cytochrome P450 enzymes (CYP1A2). The format is in vitro ADME. Conditions: for Clint / half-life at 0.2 mM: Cyp 1A2; for Percent Remaining (%) 0 min: Cyp 1A2, 0 min; for Percent Remaining (%) 0 min / Percent Remaining (%) 15 min / Percent Remaining (%) 30 min / Percent Remaining (%) 45 min / Percent Remaining (%) 60 min: mean; for Percent Remaining (%) 15 min: Cyp 1A2, 15 min; for Percent Remaining (%) 30 min: Cyp 1A2, 30 min; for Percent Remaining (%) 45 min: Cyp 1A2, 45 min; for Percent Remaining (%) 60 min: Cyp 1A2, 60 min; for half-life at 0.2 mM: human, recombinant CYP1A2 (baculovirus expression system), pH 7.4.

Another series has as its target CYP3A4 (Homo sapiens, UniProt P08684). Nature of the series: In vitro metabolism using human cytochrome P450 enzymes (CYP3A4). Conditions: for Clint: Cyp 3A4; for Percent Remaining (%) 0 min: Cyp 3A4, 0 min; for Percent Remaining (%) 0 min / Percent Remaining (%) 15 min / Percent Remaining (%) 30 min / Percent Remaining (%) 45 min / Percent Remaining (%) 60 min: mean; for Percent Remaining (%) 15 min: Cyp 3A4, 15 min; for Percent Remaining (%) 30 min: Cyp 3A4, 30 min; for Percent Remaining (%) 45 min: Cyp 3A4, 45 min; for Percent Remaining (%) 60 min: Cyp 3A4, 60 min; for half-life at 0.2 mM: human, pH 7.4.

The test system of another series is drosophila model of HD. Particulars: cited from earlier work.
For a further series, the system named is R6/2 mouse. Conditions: transgenic r6/2 mouse model; cited from earlier work.
The conditions of series [2]: cited from earlier work.
The mark [3] stands for this setting: human liver microsomes, degradation half-life.
Where [4] appears, read: recombinant CYP3A4 (baculovirus expression system).
Setting [5] is: human, single-dose phase, average.
[6] abbreviates: human, single-dose phase, range.

As a reminder, the CLint scaled is the capacity of the preparation to metabolise the compound, expressed as a volume cleared per time. Low values mean slow turnover, high ones rapid turnover. In general, half-life refers to the time in which the quantity being followed falls by half.

Where only a bound is given, the exact number is not on record here.

Sequence of CYP3A4 (P08684 whole entry): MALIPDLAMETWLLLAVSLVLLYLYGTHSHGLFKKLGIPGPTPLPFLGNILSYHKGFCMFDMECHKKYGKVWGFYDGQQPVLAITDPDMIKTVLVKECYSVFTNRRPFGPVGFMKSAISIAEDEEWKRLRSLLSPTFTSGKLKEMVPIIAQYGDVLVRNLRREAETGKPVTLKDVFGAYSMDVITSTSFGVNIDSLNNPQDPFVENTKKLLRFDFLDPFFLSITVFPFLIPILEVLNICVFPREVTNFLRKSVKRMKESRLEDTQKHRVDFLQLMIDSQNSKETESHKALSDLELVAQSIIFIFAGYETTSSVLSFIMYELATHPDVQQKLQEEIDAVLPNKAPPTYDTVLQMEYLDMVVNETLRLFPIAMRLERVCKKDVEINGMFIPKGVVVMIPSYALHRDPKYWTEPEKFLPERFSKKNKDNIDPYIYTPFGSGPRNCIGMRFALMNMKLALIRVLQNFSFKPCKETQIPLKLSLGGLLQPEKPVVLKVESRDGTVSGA

`[2H]C1([2H])c2c([nH]c3ccc(Cl)cc23)C(C(N)=O)C([2H])([2H])C1([2H])[2H]` (stereo not shown) [Example 3, 6-chloro-2,3,4,9-tetrahydro-1H-carbazole-2,2,3,3,4,4-d6-1-carboxamide]: in series [1], the “Percent Remaining (%) 0 min” value was determined as 100%, the “Percent Remaining (%) 15 min” value came out at 92.39%, the “Percent Remaining (%) 30 min” value was found to be 86.96% and the “Percent Remaining (%) 60 min” value is on record as 70.69%. The “Percent Remaining (%) 120 min” value in series [1] was determined as 52.83%. Moreover, in series [1] (human liver microsomes), the “Percent Remaining (%) 120 min w/o NADPH” value was found to be 96.74% and the CLint scaled at 1 μM was determined as 13.5 mL/min/kg. The half-life at 1 μM in series [1] (setting [3]) stood at 128 min. Also, on CYP1A2, the Clint is 0.00019 mL/min/pmol, the “Percent Remaining (%) 0 min” value is 100.00%, the “Percent Remaining (%) 15 min” value was 45.84% and the “Percent Remaining (%) 30 min” value was 26.01%. For the same compound, on CYP1A2, the “Percent Remaining (%) 45 min” value came to 17.34%, the “Percent Remaining (%) 60 min” value was 12.82% and the half-life at 0.2 mM came out at 17.9 min. Also, at CYP3A4, the Clint stood at 0.00010 mL/min/pmol, the “Percent Remaining (%) 0 min” value was determined as 100.00%, the “Percent Remaining (%) 15 min” value is 69.80% and the “Percent Remaining (%) 30 min” value was determined as 61.49%. Also, on CYP3A4, the “Percent Remaining (%) 45 min” value was found to be 63.89% and the “Percent Remaining (%) 60 min” value is on record as 60.39%. For the same compound, the half-life at 0.2 mM at CYP3A4 (setting [4]) came to 70.7 min.

For the compound `Cc1ncc2n1-c1ccc(Cl)cc1C(c1ccccc1F)=NC2` [Midazolam], on CYP3A4, the Clint was greater than 0.0014 mL/min/pmol, the “Percent Remaining (%) 0 min” value came to 100.00%, the “Percent Remaining (%) 15 min” value was “BQL” and the “Percent Remaining (%) 30 min” value was “BQL”. At CYP3A4, the “Percent Remaining (%) 45 min” value is “BQL” and the “Percent Remaining (%) 60 min” value was “BQL”. The half-life at 0.2 mM at CYP3A4 (recombinant enzyme) is less than 5 min.

Consider `CCOc1ccc(NC(C)=O)cc1` [Phenacetin], for which, on CYP1A2, the Clint is reported as 0.00018 mL/min/pmol, the “Percent Remaining (%) 0 min” value came to 100.00%, the “Percent Remaining (%) 15 min” value worked out at 53.02% and the “Percent Remaining (%) 30 min” value is on record as 31.01%. On CYP1A2, the “Percent Remaining (%) 45 min” value was determined as 20.20% and the “Percent Remaining (%) 60 min” value was 15.08%.

Consider `NC(=O)C1CCCc2c1[nH]c1ccc(Cl)cc21` (stereo not shown) [Example 1, 6-chloro-2,3,4,9-tetrahydro-1H-carbazole-1-carboxamide], for which the Neuroprotection entry in the series with drosophila model of HD was “neuroprotective”. The “Effects on life span and psychomotor and histological endpoints” value in the series with R6/2 mouse was “statistically significant effects on life span”. For the same compound, in series [2] (setting [5]), the “Intersubject variability (% CV) in AUC(0,∞), average” value is reported as 56% and the “Intersubject variability (% CV) in Cmax, average” value is given as 33%. In series [2] (setting [6]), the “Intersubject variability (% CV) in AUC(0,∞)” value is on record as 35-71% and the “Intersubject variability (% CV) in Cmax” value is on record as 23-46%. The “Safety and tolerability in human subjects” value in series [2] (recent clinical trial (Westerberg et al.)) was “safe and well-tolerated”. Besides, in series [1], the “Percent Remaining (%) 0 min” value is 100%, the “Percent Remaining (%) 15 min” value is recorded as 93.37%, the “Percent Remaining (%) 30 min” value is listed as 90.46% and the “Percent Remaining (%) 60 min” value is 73.66%. Also, the “Percent Remaining (%) 120 min” value in series [1] amounted to 52.94%. Also, in series [1] (human liver microsomes), the “Percent Remaining (%) 120 min w/o NADPH” value stood at 102.02% and the CLint scaled at 1 μM was 13.6 mL/min/kg. The compound further yielded a half-life at 1 μM in series [1] (setting [3]) of 128 min. On CYP1A2, the Clint was 0.0002 mL/min/pmol, the “Percent Remaining (%) 0 min” value turned out to be 100.00%, the “Percent Remaining (%) 15 min” value turned out to be 46.28% and the “Percent Remaining (%) 30 min” value is on record as 24.21%. In addition, on CYP1A2, the “Percent Remaining (%) 45 min” value was 16.02%, the “Percent Remaining (%) 60 min” value was 11.55% and the half-life at 0.2 mM was found to be 16.9 min. On CYP3A4, the Clint was 0.00013 mL/min/pmol, the “Percent Remaining (%) 0 min” value is listed as 100.00%, the “Percent Remaining (%) 15 min” value is 63.43% and the “Percent Remaining (%) 30 min” value is on record as 55.02%. Further, at CYP3A4, the “Percent Remaining (%) 45 min” value came out at 54.21% and the “Percent Remaining (%) 60 min” value is 51.13%. In addition, the half-life at 0.2 mM at CYP3A4 (setting [4]) stood at 52.5 min.

Take `O=C(c1ccc(F)cc1)C1CCN(CCn2c(=O)[nH]c3ccccc3c2=O)CC1` [Ketanserin]: in series [1] (human liver microsomes), the Clint stood at 39.88 mL/min/kg and the “Percent Remaining (%) 120 min w/o NADPH” value stood at 97.70%. Besides, in series [1], the “Percent Remaining (%) 0 min” value came to 100%, the “Percent Remaining (%) 15 min” value is 78.08%, the “Percent Remaining (%) 30 min” value is 64.73% and the “Percent Remaining (%) 60 min” value amounted to 44.75%. In series [1], the “Percent Remaining (%) 120 min” value stood at 26.52%. Moreover, the T1/2 in series [1] (setting [3]) came out at 43.58 min.

In the case of `[2H]C1(C(N)=O)CCCc2c1[nH]c1ccc(Cl)cc21` (stereo not shown) [Example 2, 6-chloro-1-deutero-2,3,4,9-tetrahydro-1H-carbazole-1-carboxamide], in series [1], the “Percent Remaining (%) 0 min” value was 100%, the “Percent Remaining (%) 15 min” value was found to be 100.12%, the “Percent Remaining (%) 30 min” value worked out at 85.44% and the “Percent Remaining (%) 60 min” value was found to be 71.84%. Moreover, in series [1], the “Percent Remaining (%) 120 min” value is 59.95%. Besides, in series [1] (human liver microsomes), the “Percent Remaining (%) 120 min w/o NADPH” value is given as 100.36% and the CLint scaled at 1 μM worked out at 11.4 mL/min/kg. The same compound returned a half-life at 1 μM in series [1] (setting [3]) of 152 min. Moreover, at CYP1A2, the Clint came out at 0.0002 mL/min/pmol, the “Percent Remaining (%) 0 min” value worked out at 100.00%, the “Percent Remaining (%) 15 min” value is reported as 48.53% and the “Percent Remaining (%) 30 min” value is on record as 27.30%. Further, at CYP1A2, the “Percent Remaining (%) 45 min” value is 17.05%, the “Percent Remaining (%) 60 min” value was 12.99% and the half-life at 0.2 mM is 17.7 min. For the same compound, on CYP3A4, the Clint is 0.00013 mL/min/pmol, the “Percent Remaining (%) 0 min” value was found to be 100.00%, the “Percent Remaining (%) 15 min” value amounted to 69.07% and the “Percent Remaining (%) 30 min” value was 59.14%. For the same compound, at CYP3A4, the “Percent Remaining (%) 45 min” value was found to be 54.63% and the “Percent Remaining (%) 60 min” value was 53.05%. Also, the half-life at 0.2 mM on CYP3A4 (setting [4]) came out at 52.8 min.
